Data on twelve compounds can be found in patent US11834446B2, “Methods and compositions useful in treating cancer and reducing Wnt mediated effects in a cell” (StemSynergy Therapeutics, Inc., priority 2009, dated 2023).

The term EC50 denotes the concentration that produces a half-maximal response.

Some results are limits rather than exact numbers.

This experiment relates to Wnt reporter (TCF/LEF1 promoter) in HEK STF293 cells. The experiment is described as follows: HEK STF293 Wnt reporter (luciferase) assay. Type of experiment: cell-based. Particulars: Homo sapiens, STF/293, Wnt3a-conditioned media, Steady Glo normalized to Cell Titer. The method, then:
Screening with STF293 and SW480STF. HEK STF293 cells are seeded at approximately 25,000-30,000 cells/well in a 96-well (100 uL volume). On the first day, Wnt3a-conditioned media (1:1) will be added along with diluted compounds (1:100). For example, for 100 ul of STF293 cells, 100 ul of Wnt3a-conditioned media and 2 ul of drug will be added to each well. The final concentrations should therefore be 100 μM, 30 μM, 10 μM, 3 μM, 1 μM, 300 nM, 100 nM, 30 nM, 10 nM, 3 nM, 1 nM, and 0.3 nM. On the second day, the media is removed and 75 ul of Passive Lysis Buffer (Promega) is added to each well. The plate will be shaken at 130 rpm for 15 minutes. For the Steady Glo assay, 45 ul of the lysis is removed and added to a white 96-well plate containing 45 uL/well of Steady Glo solution (Promega). For the Cell Titer assay, 25 ul of the lysis is transferred to a white 96-well plate containing 25 ul/well of Cell Titer solution (Promega). Both Steady Glo and Cell Titer assays will be read with a luminescence plate reader. When determining EC50, the Steady Glo values will be divided by the Cell Titer values to normalize for cell number and the resulting values plotted in a dose-response curve.
Experimental. All compounds were tested using the human cell line HEK STF293. This cell line carries a Wnt reporter (TCF/LEF1 promoter), which drives expression of the firefly luciferase protein. The level of Wnt activity is directly correlated with the level of luciferase activity (determined using a simple assay). Compounds that inhibit Wnt signaling by reducing luciferase activity in these two cell lines are further tested biochemically.
Compounds were prepared as 10 mM stocks for each compound in DMSO. Dilutions were prepared in a 96-well plate in DMSO. The stock dilutions are as follows: 10 mM, 1 mM, […]. Plates were sealed and stored at −20 C.
HEK STF293 cells were seeded at approximately 25,000-30,000 cells/well in a 96-well (100 uL volume). On the first day, Wnt3a-conditioned media (1:1) were added along with diluted compounds (1:100). For example, for 100 ul of STF293 cells, 100 ul of Wnt3a-conditioned media and 2 ul of drug was added to each well. The final concentrations should therefore be 100 uM, 10 uM, 1 uM, 100 nM, 10 nM, and 1 nM. On the second day, the media is removed and 75 ul of Passive Lysis Buffer (Promega) is added to each well. The plate is shaken at 130 rpm for 15 minutes. For the Steady Glo assay, 45 ul of the lysis is removed and added to a white 96-well plate containing 45 uL/well of Steady Glo solution (Promega). For the Cell Titer assay, 25 ul of the lysis is transferred to a white 96-well plate containing 25 ul/well of Cell Titer solution (Promega). Both Steady Glo and Cell Titer assays were read with a luminescence plate reader. When determining EC50, the Steady Glo values were divided by the Cell Titer values to normalize for cell number.
The compound `COc1cc2nc(NC(=O)c3ccc(S(=O)(=O)N4CCc5ccccc54)cc3)sc2cc1OC` had an EC50 above 100 nM.

As to `COc1ccccc1-c1cc(C(=O)Nc2c(C)nn(Cc3ccc(F)cc3)c2C)no1`, the EC50 is above 100 nM.

In the case of `Cc1nn(Cc2ccccc2)c(C)c1NC(=O)c1cc(-c2ccc(Br)cc2)on1`, the EC50 is at most 100 nM.

`COc1cc2nc(NC(=O)c3ccc(S(=O)(=O)N(C)c4ccccc4)cc3)sc2cc1OC`: the EC50 was above 100 nM.

`O=C(Nc1ccc(F)cc1)c1ccc(S(=O)(=O)N2CCc3ccccc32)cc1`: the EC50 was above 100 nM.

`Cc1sc(NC(=O)c2ccc(S(=O)(=O)N3CCc4ccccc43)cc2)nc1-c1ccccc1` displayed an EC50 above 100 nM.

`Cc1ccc(NS(=O)(=O)c2ccc(NC(=O)c3n[nH]c4c3CCc3ccccc3-4)cc2)cc1` displayed an EC50 above 100 nM.

`NC(=O)c1ccccc1NC(=O)c1ccc(S(=O)(=O)Nc2ccccc2)cc1` yielded an EC50 above 100 nM.

On to `Cc1nn(Cc2ccccc2)c(C)c1NC(=O)c1cc2n(n1)C(C(F)(F)F)CC(c1ccccc1)N2` (stereo not drawn), for which the EC50 is at most 100 nM.

With `Cc1ccc(C)c(NS(=O)(=O)c2ccc(NC(=O)c3n[nH]c4c3CCc3ccccc3-4)cc2)c1`, the EC50 was above 100 nM.

As to `Cc1nn(Cc2ccc(F)cc2)c(C)c1NC(=O)c1cc(-c2ccc(F)cc2)on1`, the EC50 was above 100 nM.

The compound `O=C(Nc1nc(-c2ccccn2)cs1)c1ccc(S(=O)(=O)N2CCCc3ccccc32)cc1` gave an EC50 of at most 100 nM.
